This experiment relates to conscious dogs. In words: one-hour infusion of atriopeptin 24 in conscious dogs, renal hemodynamics and function, before and after α1-adrenergic receptor blockade. Conditions: prazosin 1 mg/kg 40 minutes prior to one-hour atriopeptin 24 infusion. The experiment is classed as in vivo, dog.

Entries after “also recorded” stand apart in the source; their conditions may differ.

Description: In this example, I first infused conscious dogs for one hour with atriopeptin 24 and measured the effects on renal hemodynamics and function. At least one week later, I treated the same dogs with the α1 -adrenergic blocking agent, prazosin, 40 minutes prior to a one-hour atriopeptin 24 infusion.
The experiments were conducted using the following techniques and devices: female mongrel dogs were instrumented using sterile surgical techniques under sodium pentobarbital anesthesia (25 mg/kg). To measure renal blood flow, a Doppler ultrasonic flow transducer (Parks Electronics) was placed around the left renal artery. […]
Arterial pressure was recorded using the implanted catheter attached to a Statham P23Db strain gauge transducer. Renal blood flow was measured using an ultrasonic flowmeter (Model 806A, Parks Electronics) and the implanted Doppler flow transducer. Phasic arterial pressure and renal blood flow were recorded on magnetic tape (Bell and Howell 3700B) and played back on a direct writing oscillograph (Gould-Brush 2800S). […] Heart rate was calculated using a cardiotachometer (Beckman Model 80574) from the pressure pulse interval.
To measure renal function, urine samples were taken from the dogs, urine volume was measured and the concentration of urine and plasma sodium (Na) and potassium (K) was assayed using a flame photometer (Instrumentation Laboratories, Model 343). […]

Take `COc1cc2nc(N3CCN(C(=O)c4ccco4)CC3)nc(N)c2cc1OC` [prazosin]: the “effect of α1-adrenergic blockade on renal vasodilation produced by atriopeptin 24” value is “renal blood flow remained elevated for the duration of the atriopeptin 24 infusion; also recorded: caused a sustained renal vasodilation”.
